From US4782092A, “5,8-dichloro-4-hydroxy-1-[(aminoalkyl) amino]-9,10-anthracenediones, pharmaceutical compositions and use” (Mid-America Cancer Center, priority 1986, dated 1988)
“And” between values parts separate entries of the source, which are not always exact repeats. Equal values may be shown once. Read-outs that look alike come from different tables or passages of the source.

What was measured:
L1210 Leukemia = experiment: growth-inhibitory effects against mouse tumor line L1210 in suspension cell culture; type: cell-based; conditions: L1210, 72 h
Experimental: In another test protocol, growth-inhibitory effects are measured against the mouse tumor line L1210 in suspension cell culture. Cell cultures were initiated at a density of 50,000 cells/ml in medium RPMI […] supplemented with 10 percent fetal calf serum. Composition of this culture medium and details of the culture procedure follow the published method (Journal of the National Cancer Institute 36, 405-415, 1966). Cultures are maintained at 37 degrees in stationary suspension culture under a 95 percent air +5 percent CO2 atmosphere. Test compounds are added to treated cultures at the time of initiation, and are present continually. After 72 hours, 40-fold dilutions of drug-treated and untreated control cultures are prepared in 0.9 percent NaCl solution, and cells are counted on an electronic particle counter. The growth-inhibitory effects are expressed as ID50 values, namely test compound inhibitory dosages or concentrations required to decrease cell count in treated cultures to 50 percent of the cell count of untreated control cultures.

Escherichia coli PD08463 = experiment: in vitro antibacterial/antifungal (ABF) agar-disk diffusion assay, Escherichia coli PD08463; type: cell-based; conditions: 5.0 mg/ml, read-out: Inhibition Zone Diameter
Experimental: (§1) One test protocol is the in vitro antibacterial/antifungal (ABF) test. Compounds are tested for antimicrobial activity in an agar-disk diffusion assay, a standard microbiological technique for testing antibiotics. After incubation of each culture with a test compound, a zone of inhibition is determined. The zone diameter (mm) of active compounds ranges from a minimum of 14 mm to as high as 18 mm, with a greater diameter reflecting higher activity. For convenience, values are reported for three gram-negative bacterial species, Alcaligenes viscolactis ATCC 21698, Escherichia coli Tol and PD04863, Branhamella catarrhalis PD03596; and one gram-positive bacterium, Bacillus subtilis PD04555.

[1] = tested on: Alcaligenes viscolactis (ATCC-21698); experiment: in vitro antibacterial/antifungal (ABF) agar-disk diffusion assay, Alcaligenes viscolactis; type: cell-based; conditions: read-out: Inhibition Zone Diameter
Experimental: as §1

[2] = tested on: Bacillus subtilis PD04555; experiment: in vitro antibacterial/antifungal (ABF) agar-disk diffusion assay, Bacillus subtilis; type: cell-based; conditions: read-out: Inhibition Zone Diameter
Experimental: as §1

[3] = tested on: Branhamella catarrhalis PD03596; experiment: in vitro antibacterial/antifungal (ABF) agar-disk diffusion assay, Branhamella catarrhalis; type: cell-based; conditions: Moraxella catarrhalis, 5.0 mg/ml, read-out: Inhibition Zone Diameter
Experimental: as §1

P388 Leukemia = experiment: in vivo lymphocytic leukemia P388 test; design: species or system mice (CD2 F1); conditions: IP/IP, QOID × 5
Experimental: Another test protocol is the in vivo lymphocytic leukemia P388 test. The animals used are either male or female CD2 F1 mice, six or seven animals per test group. The tumor transplant is by intraperitoneal injection of dilute ascitic fluid containing cells of lymphocytic leukemia P388. The test compounds are administered intraperitoneally once daily for five consecutive days at various doses following tumor inoculation. The animals are weighed and survivors are recorded on a regular basis for 30 days. A compound is designated "toxic" if, at a given dose, all animals died prior to four days after the first injection of drug. A ratio of survival time for treated (T)/control (C) animals is calculated. A criterion for efficacy is a ratio T/C times 100 greater than or equal to 125. See Cancer Chemotherapy Reports, Part 3, 3, 1 (1972) for a comprehensive discussion of the protocol.

Escherichia coli Tol = experiment: in vitro antibacterial/antifungal (ABF) agar-disk diffusion assay, Escherichia coli Tol; type: cell-based; conditions: read-out: Inhibition Zone Diameter
Experimental: as §1

B16 Melanoma = experiment: solid tumor B16 melanoma in mice; type: in vivo, mice (B6C3F1); conditions: IP/IP, QOID × 9
Experimental: Another test protocol utilizes the solid tumor B16 melanoma in mice. The tumor is inoculated by intraperitoneal injection. The test compounds are administered intraperitoneally once daily for nine consecutive days at various doses following tumor inoculation. A ratio of survival time for treated (T)/control (C) animals is calculated. A criterion for efficacy is a ratio T/C times 100 greater than or equal to […]. See Cancer Therapy Reviews, 7,167(1980) and references cited therein for further details and interpretation of the test.
*Procedure described in Cancer Chemotherapy Reviews, 7, 167 (1980) and
references cited therein.

[4] = Test 1, read-out: Molar Concentration Required for 50% Inhibition of Growth (ID50)
[5] = Test 2, read-out: Molar Concentration Required for 50% Inhibition of Growth (ID50)
[6] = 25 mg/kg, listed as 5,8-Dichloro-4-hydroxy-1-[ [2-[(2-hydroxyethyl)aminoethyl]amino]-7,10-anthracene
[7] = 50 mg/kg, listed as 5,8-Dichloro-4-hydroxy-1-[ [2-[(2-hydroxyethyl)aminoethyl]amino]-7,10-anthracene
[8] = 100 mg/kg, listed as 5,8-Dichloro-4-hydroxy-1-[ [2-[(2-hydroxyethyl)aminoethyl]amino]-7,10-anthracene

`CN(C)CCNc1ccc(O)c2c1C(=O)c1c(Cl)ccc(Cl)c1C2=O` [5,8-dichloro-4-hydroxy-1-[2-(dimethylamino)ethyl]amino-9,10-anthracenedione] showed an IC50 (L1210 Leukemia; [4]) of 91.9 nM and an IC50 (L1210 Leukemia; [5]) of 80.9 nM.

In the case of `O=C1c2c(O)ccc(NCCNCCO)c2C(=O)c2c(Cl)ccc(Cl)c21` [5,8-dichloro-4-hydroxy-1-[[2-[(2-hydroxyethyl)aminoethyl]amino]]-9,10-anthracenedione], the zone of inhibition at 5000 µg/mL (Escherichia coli PD08463) is reported as 14 mm, the IC50 (L1210 Leukemia; [4]) is reported as 86.6 nM and the IC50 (L1210 Leukemia; [5]) is reported as 111 nM. It also gave a zone of inhibition at 1000 µg/mL ([1]; ATCC21698, 1.0 mg/ml) of 14 mm, a zone of inhibition at 5000 µg/mL ([1]; ATCC21698, 5.0 mg/ml) of 15 mm and a zone of inhibition at 1000 µg/mL ([2]; 1.0 mg/ml) of 14 mm. For the same compound, the zone of inhibition at 5000 µg/mL ([2]; 5.0 mg/ml) was 16 mm, the zone of inhibition at 5000 µg/mL [3] was 14 mm and the “T/C × 100” value (P388 Leukemia; 6.25 mg/kg) was 154%. For the same compound, the “T/C × 100” value (P388 Leukemia; 12.5 mg/kg) was 146%, the cures (P388 Leukemia; 25 mg/kg) was “cures” and the “T/C × 100” value (P388 Leukemia; [6]) was 242% and 163%. The “T/C × 100” value (P388 Leukemia; [7]) was 175% and 188% and 177%, the “T/C × 100” value (P388 Leukemia; [8]) was 235% and 202% and the zone of inhibition at 1000 µg/mL (Escherichia coli Tol; 1.0 mg/ml) was 15 mm. The zone of inhibition at 5000 µg/mL (Escherichia coli Tol; 5.0 mg/ml) was 18 mm, the “T/C × 100” value (B16 Melanoma; 6.25 mg/kg) was 166% and the “T/C × 100” value (B16 Melanoma; 12.5 mg/kg) was 172%. The cures (B16 Melanoma; 12.5 mg/kg) was “cures”, the “T/C × 100” value (B16 Melanoma; 20 mg/kg) was 224% and the cures (B16 Melanoma; 25 mg/kg) was “cures”. The “T/C × 100” value (B16 Melanoma; [6]) was 199% and 130%, the “T/C × 100” value (B16 Melanoma; 40 mg/kg) was 231% and the cures (B16 Melanoma; 40 mg/kg) was “cures”. For the same compound, the cures (B16 Melanoma; 50 mg/kg) was “cures”, the “T/C × 100” value (B16 Melanoma; [7]) was 252% and 143% and the “T/C × 100” value (B16 Melanoma; 80 mg/kg) was 271%. For the same compound, the cures (B16 Melanoma; 80 mg/kg) was “cures”, the cures (B16 Melanoma; 100 mg/kg) was “cures” and the “T/C × 100” value (B16 Melanoma; [8]) was 270% and 191%. The “T/C × 100” value (B16 Melanoma; 160 mg/kg) was 326%, the “T/C × 100” value (B16 Melanoma; 200 mg/kg, listed as 5,8-Dichloro-4-hydroxy-1-[ [2-[(2-hydroxyethyl)aminoethyl]amino]-7,10-anthracene) was 180% and 172% and the “T/C × 100” value (B16 Melanoma; 400 mg/kg) was 190%.
